Measured values reported in ChEMBL document CHEMBL5346940, “Design, synthesis and biological evaluation of dual Topo II/HDAC inhibitors bearing pyrimido[5,4-b]indole and pyrazolo[3,4-d]pyrimidine motifs” (Eur J Med Chem, 2023).
Activity calls are given as the source filed them. No cut-off for these calls is given here.

Tests used:
[1] = system: MGC-803; test: Antiproliferative activity against human MGC-803 cells assessed as reduction in cell viability measured for 48 hrs by MTT assay; format: functional, cell-based; settings: MGC-803, 48 h
[2] = system: U-937; test: Antiproliferative activity against human U-937 cells assessed as reduction in cell viability measured for 48 hrs by MTT assay; format: functional, cell-based; settings: U-937, 48 h
[3] = system: MCF7; test: Antiproliferative activity against human MCF7 cells assessed as reduction in cell viability measured for 48 hrs by MTT assay; format: functional, cell-based; settings: MCF7, 48 h
[4] = molecular target: DNA topoisomerase 2-alpha (Homo sapiens) (UniProt P11388); test: Inhibition of human topoisomerase 2 assessed as relaxation of pBR322 plasmid DNA at 100 uM measured after 30 mins by ethidium bromide staining based UV transilluminator analysis
Chain of DNA topoisomerase 2-alpha (Homo sapiens) (P11388 whole entry): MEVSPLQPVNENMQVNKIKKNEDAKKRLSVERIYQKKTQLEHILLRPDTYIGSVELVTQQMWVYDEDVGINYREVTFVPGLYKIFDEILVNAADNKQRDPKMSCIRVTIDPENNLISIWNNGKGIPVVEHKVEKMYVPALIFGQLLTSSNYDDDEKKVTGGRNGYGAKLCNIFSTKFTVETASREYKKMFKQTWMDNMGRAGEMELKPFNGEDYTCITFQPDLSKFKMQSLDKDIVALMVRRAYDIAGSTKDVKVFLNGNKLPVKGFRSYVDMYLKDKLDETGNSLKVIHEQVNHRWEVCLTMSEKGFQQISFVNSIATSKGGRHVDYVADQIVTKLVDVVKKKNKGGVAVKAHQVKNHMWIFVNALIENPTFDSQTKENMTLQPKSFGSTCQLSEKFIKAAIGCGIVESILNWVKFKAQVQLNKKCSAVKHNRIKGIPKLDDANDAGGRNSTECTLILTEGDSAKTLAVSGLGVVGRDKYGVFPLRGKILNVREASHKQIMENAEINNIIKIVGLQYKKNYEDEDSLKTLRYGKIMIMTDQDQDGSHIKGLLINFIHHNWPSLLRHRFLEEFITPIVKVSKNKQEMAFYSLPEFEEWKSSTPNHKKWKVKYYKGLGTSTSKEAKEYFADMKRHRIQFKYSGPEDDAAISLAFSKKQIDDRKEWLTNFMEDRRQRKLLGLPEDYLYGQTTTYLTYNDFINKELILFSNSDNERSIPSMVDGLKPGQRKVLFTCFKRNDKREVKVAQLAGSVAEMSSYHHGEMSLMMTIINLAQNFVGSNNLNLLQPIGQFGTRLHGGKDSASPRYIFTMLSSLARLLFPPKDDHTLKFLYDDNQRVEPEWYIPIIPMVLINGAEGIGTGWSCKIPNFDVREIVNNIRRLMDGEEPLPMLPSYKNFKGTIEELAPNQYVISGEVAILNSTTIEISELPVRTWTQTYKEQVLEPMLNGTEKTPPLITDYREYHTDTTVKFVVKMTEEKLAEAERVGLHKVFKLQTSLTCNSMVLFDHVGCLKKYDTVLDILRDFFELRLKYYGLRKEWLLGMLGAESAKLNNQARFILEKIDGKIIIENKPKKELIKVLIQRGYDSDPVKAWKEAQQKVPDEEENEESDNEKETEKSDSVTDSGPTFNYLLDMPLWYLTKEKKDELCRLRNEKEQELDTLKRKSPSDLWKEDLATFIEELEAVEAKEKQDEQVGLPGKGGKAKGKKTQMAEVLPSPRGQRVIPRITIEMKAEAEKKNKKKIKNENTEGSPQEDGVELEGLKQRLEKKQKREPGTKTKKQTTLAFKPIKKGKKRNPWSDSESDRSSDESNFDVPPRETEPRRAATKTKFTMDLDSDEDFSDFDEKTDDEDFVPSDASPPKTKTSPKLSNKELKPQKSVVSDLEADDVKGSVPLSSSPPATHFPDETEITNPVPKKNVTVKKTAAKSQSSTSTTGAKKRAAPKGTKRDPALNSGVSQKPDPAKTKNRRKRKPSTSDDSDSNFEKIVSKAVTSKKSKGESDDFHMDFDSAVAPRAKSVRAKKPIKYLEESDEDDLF

[5] = molecular target: Histone deacetylase; test: Inhibition of HDAC in human HeLa nuclear extract measured after 30 mins by fluorescence based assay; format: cell-free
[6] = system: NIH3T3; test: Antiproliferative activity against mouse 3T3 cells assessed as reduction in cell viability at 100 uM measured for 48 hrs by MTT assay relative to control; format: toxicity, cell-based; settings: nih3t3, 48 h
[7] = molecular target: T1, DNA topoisomerase 1 (Homo sapiens) (UniProt P11387); test: Inhibition of human topoisomerase 1 assessed as relaxation of pBR322 plasmid DNA at 100 uM measured after 30 mins by agarose gel electrophoresis analysis
T1 sequence (whole entry): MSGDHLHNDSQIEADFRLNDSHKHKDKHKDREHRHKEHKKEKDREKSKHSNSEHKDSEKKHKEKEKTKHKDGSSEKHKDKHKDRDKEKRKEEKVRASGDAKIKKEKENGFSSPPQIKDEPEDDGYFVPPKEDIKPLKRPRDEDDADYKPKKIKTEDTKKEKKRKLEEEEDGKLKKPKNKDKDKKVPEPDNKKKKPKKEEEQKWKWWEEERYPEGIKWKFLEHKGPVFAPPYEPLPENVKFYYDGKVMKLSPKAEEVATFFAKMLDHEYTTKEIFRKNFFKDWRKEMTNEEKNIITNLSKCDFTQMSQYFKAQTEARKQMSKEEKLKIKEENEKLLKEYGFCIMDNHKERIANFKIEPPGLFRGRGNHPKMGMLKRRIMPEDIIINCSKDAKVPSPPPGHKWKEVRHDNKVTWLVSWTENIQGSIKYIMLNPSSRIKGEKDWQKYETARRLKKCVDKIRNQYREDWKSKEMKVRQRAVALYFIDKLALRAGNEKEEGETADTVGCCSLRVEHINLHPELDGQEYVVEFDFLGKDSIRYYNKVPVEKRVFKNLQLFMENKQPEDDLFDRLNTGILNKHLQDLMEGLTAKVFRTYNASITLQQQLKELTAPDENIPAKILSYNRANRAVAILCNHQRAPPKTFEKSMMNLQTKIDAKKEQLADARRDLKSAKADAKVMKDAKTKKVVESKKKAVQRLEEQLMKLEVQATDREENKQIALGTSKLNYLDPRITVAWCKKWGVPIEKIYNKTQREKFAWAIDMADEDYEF

[8] = system: MCF7; test: Induction of apoptosis in human MCF7 cells assessed as early apoptotic cells at 10 uM incubated for 48 hrs by AnnexinV-FITC/propidium iodide staining based flow cytometry analysis (reference value: 0.28 %); format: functional
[9] = system: MCF7; test: cells; format: functional; settings: Homo sapiens, time 48 hrs
Description: Inhibition of cell migration in human MCF7 cells assessed as reduction in cell migration at 2.5 uM measured for 48 hrs by wound healing assay based microscopic analysis (Rvb = 70.25%)

[10] = system: MCF7; test: Induction of apoptosis in human MCF7 cells assessed as late apoptotic cells at 20 uM incubated for 48 hrs by AnnexinV-FITC/propidium iodide staining based flow cytometry analysis (reference value: 0.015 %); format: functional
[11] = system: MCF7; test: Induction of apoptosis in human MCF7 cells assessed as viable cells at 10 uM incubated for 48 hrs by AnnexinV-FITC/propidium iodide staining based flow cytometry analysis (reference value: 99.2 %); format: functional; settings: read-out: Activity
[12] = system: MCF7; test: Induction of apoptosis in human MCF7 cells assessed as cell depletion at 10 uM incubated for 48 hrs by AO/EB staining based fluorescence microscopic analysis; format: functional
[13] = system: MCF7; test: Induction of apoptosis in human MCF7 cells assessed as viable cells at 20 uM incubated for 48 hrs by AnnexinV-FITC/propidium iodide staining based flow cytometry analysis (reference value: 99.2 %); format: functional; settings: read-out: Activity
[14] = system: MCF7; test: Induction of apoptosis in human MCF7 cells assessed as necrotic cells at 20 uM incubated for 48 hrs by AnnexinV-FITC/propidium iodide staining based flow cytometry analysis (reference value: 0.55 %); format: functional
[15] = system: MCF7; test: Induction of apoptosis in human MCF7 cells assessed as cell shrinkage at 10 uM incubated for 48 hrs by AO/EB staining based fluorescence microscopic analysis; format: functional
[16] = system: MCF7; test: Induction of apoptosis in human MCF7 cells assessed as early apoptotic cells at 5 uM incubated for 48 hrs by AnnexinV-FITC/propidium iodide staining based flow cytometry analysis (reference value: 0.28 %); format: functional
[17] = system: MCF7; test: Inhibition of cell migration in human MCF7 cells assessed as reduction in cell migration at 5 uM measured for 48 hrs by wound healing assay based microscopic analysis (reference value: 70.25%); format: functional
[18] = system: MCF7; test: Induction of apoptosis in human MCF7 cells assessed as appearance of rounded cells at 10 uM incubated for 48 hrs by AO/EB staining based fluorescence microscopic analysis; format: functional, cell-based
[19] = system: MCF7; test: Induction of apoptosis in human MCF7 cells assessed as necrotic cells at 5 uM incubated for 48 hrs by AnnexinV-FITC/propidium iodide staining based flow cytometry analysis (reference value: 0.55 %); format: functional
[20] = system: MCF7; test: Induction of apoptosis in human MCF7 cells assessed as late apoptotic cells at 10 uM incubated for 48 hrs by AnnexinV-FITC/propidium iodide staining based flow cytometry analysis (reference value: 0.015 %); format: functional
[21] = system: MCF7; test: Induction of apoptosis in human MCF7 cells assessed as viable cells at 5 uM incubated for 48 hrs by AnnexinV-FITC/propidium iodide staining based flow cytometry analysis (reference value: 99.2 %); format: functional; settings: read-out: Activity
[22] = system: MCF7; test: Induction of apoptosis in human MCF7 cells assessed as early apoptotic cells at 20 uM incubated for 48 hrs by AnnexinV-FITC/propidium iodide staining based flow cytometry analysis (reference value: 0.28 %); format: functional
[23] = system: MCF7; test: cells; format: functional; settings: Homo sapiens, time 48 hrs; remark: listed apart in the source
Description: Inhibition of cell migration in human MCF7 cells assessed as reduction in cell migration at 1 uM measured for 48 hrs by wound healing assay based microscopic analysis (Rvb = 70.25%)

[24] = system: MCF7; test: Induction of apoptosis in human MCF7 cells assessed as necrotic cells at 10 uM incubated for 48 hrs by AnnexinV-FITC/propidium iodide staining based flow cytometry analysis (reference value: 0.55 %); format: functional
[25] = system: MCF7; test: Induction of apoptosis in human MCF7 cells assessed as late apoptotic cells at 5 uM incubated for 48 hrs by AnnexinV-FITC/propidium iodide staining based flow cytometry analysis (reference value: 0.015 %); format: functional
[26] = molecular target: DNA topoisomerase 2-alpha (Homo sapiens) (UniProt P11388); test: Poison activity at human topoisomerase 2 assessed as stabilization of enzyme-DNA cleavage complex by measuring linear DNA formation at 100 uM incubated for 6 mins by EtBr staining based UV light analysis

IC50 [1] [µM] | IC50 [2] [µM] | IC50 [3] [µM] | topoisomerase II inhibition (active/inactive) [4] | IC50 [5] [µM] | inhibition (active/inactive call) [7] | Structure (SMILES) | Activity [6] [%] | Activity [8] [%] | viability at 10 µM [11] [%] | Activity [20] [%] | Activity [24] [%] | further results
27.6 | 34.8 | 28.6 | Active | 2.58 | Active | O=C(CCCCCSc1nc2c([nH]c3ccccc32)c(=O)[nH]1)NO | 65.7 | – | – | – | – | –
12.3 | 24.6 | 18.3 | Active | 5.9 | Active | CCn1c(SCCCCC(=O)NO)nc2c([nH]c3ccccc32)c1=O | 38.7 | 14.1 | 78.7 | 6.9 | 0.3 | inhibition at 2.5 µM [9]: 56.4%; Activity [10]: 17.1%; Activity [12]: Active; viability at 20 µM [13]: 53.7%; Activity [14]: 0.48%; Activity [15]: Active; Activity [16]: 4.86%; inhibition at 5 µM [17]: 29.7%; Activity [18]: Active; Activity [19]: 0.6%; viability at 5 µM [21]: 93.4%; Activity [22]: 28.8%; inhibition at 1 µM [23]: 65.4%; Activity [25]: 1.16%
1.58 | 1.58 | – | – | – | – | O=C(CCCCCCC(=O)Nc1ccccc1)NO [VORINOSTAT] | 14.98 | 35.2 | 44.7 | 19.7 | 0.41 | –
10.8 | 22.9 | 29.7 | – | – | – | COc1cc([C@@H]2c3cc4c(cc3[C@@H](O[C@@H]3O[C@@H]5CO[C@@H](C)O[C@H]5[C@H](O)[C@H]3O)[C@H]3COC(=O)[C@H]23)OCO4)cc(OC)c1O [ETOPOSIDE] | 21.47 | 4.41 | 92.7 | 2.48 | 0.37 | inhibition at 2.5 µM [9]: 47.1%; Activity [26]: Active; inhibition at 1 µM [23]: 64.7%
24.8 | 28 | 59.6 | Active | – | Active | O=C(CCSc1nc2c([nH]c3ccccc32)c(=O)[nH]1)NO | 21.73 | – | – | – | – | –
48.4 | 30.3 | 37.2 | Active | – | Active | CCn1c(SCC(=O)Nc2ccc(/C(C)=N/O)cc2)nc2c([nH]c3ccccc32)c1=O | 21.56 | – | – | – | – | –
31.2 | 23.5 | > 80 | Active | – | Active | O=C(CSc1nc2[nH]ncc2c(=O)[nH]1)NO | 41.42 | – | – | – | – | –
40 | 19.5 | 18.9 | Active | – | Active | O=C(CCCCSc1nc2[nH]ncc2c(=O)[nH]1)NO | 24.26 | – | – | – | – | –
21.8 | 30.3 | 37.2 | – | 2.38 | Active | O=C(/C=C/c1ccc(CSc2nc3c([nH]c4ccccc43)c(=O)[nH]2)cc1)NO | 21.56 | – | – | – | – | –
9.59 | 28.5 | – | Active | 4.67 | Active | O=C(CCCCSc1nc2c([nH]c3ccccc32)c(=O)[nH]1)NO | 7.62 | 26.6 | 60.6 | 12.1 | 0.67 | inhibition at 2.5 µM [9]: 32.3%; Activity [10]: 24.9%; Activity [12]: Active; viability at 20 µM [13]: 45.5%; Activity [14]: 0.54%; Activity [15]: Active; Activity [26]: Active; Activity [16]: 10.4%; inhibition at 5 µM [17]: 19.3%; Activity [18]: Active; Activity [19]: 0.3%; viability at 5 µM [21]: 83.4%; Activity [22]: 29%; inhibition at 1 µM [23]: 58.5%; Activity [25]: 5.88%
> 80 | 26.7 | > 80 | Active | – | Active | O=C(CSc1nc2c([nH]c3ccccc32)c(=O)[nH]1)NO | 38.47 | – | – | – | – | –
19.1 | 31.8 | 22.6 | Active | – | Active | O=C(CCSc1nc2[nH]ncc2c(=O)[nH]1)NO | 48.81 | – | – | – | – | –
